The target in this assay is T1, Human NK1 Receptor (Homo sapiens, UniProt P25103).
T1 construct: endogenous in cells; host or cells: Human lymphoma IM9 cells (whole cells)
T1 sequence (P25103 whole entry): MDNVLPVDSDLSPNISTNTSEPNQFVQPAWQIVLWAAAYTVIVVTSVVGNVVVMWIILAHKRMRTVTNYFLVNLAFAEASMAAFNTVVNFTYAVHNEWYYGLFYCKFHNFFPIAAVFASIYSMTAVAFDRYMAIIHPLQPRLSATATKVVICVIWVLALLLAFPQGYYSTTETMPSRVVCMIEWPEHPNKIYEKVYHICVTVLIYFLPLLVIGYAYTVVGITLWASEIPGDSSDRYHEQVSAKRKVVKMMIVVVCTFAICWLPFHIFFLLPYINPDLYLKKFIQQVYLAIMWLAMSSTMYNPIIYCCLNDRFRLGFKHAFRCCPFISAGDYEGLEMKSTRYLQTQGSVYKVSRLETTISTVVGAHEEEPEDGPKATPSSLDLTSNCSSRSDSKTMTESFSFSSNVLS
The experiment in a line: In Vitro Human NK1 Receptor Binding Assay ([125I]Bolton-Hunter substance P displacement, IM9 cells). The following applies: Human lymphoma IM9 cells, [125I]Bolton-Hunter substance P; Table 3, array-synthesis products; read-out: IC50 (nM) hNK1. On the procedure:
They have been evaluated in an NK1-receptor binding assay which is described below.
Human lymphoma IM9 cells were grown in RPMI 1640 culture medium supplemented with 10% fetal calf serum and 2 mM glutamine and maintained under an atmosphere of 5% CO2. Cells were passaged every 3-4 days by reseeding to a concentration of 4-8×10^6/40 ml per 175 cm^2 flask. Cells were harvested for experiments by centrifugation at 1000 g for 3 min. Pelleted cells were washed once by resuspension into assay buffer (50 mM Tris HCl pH 7.4, 3 mM MnCl2, 0.02% BSA, […] bacitracin, […] chymostatin, 2 mM phosphoramidon, […] leupeptin) and repeating the centrifugation step before resuspending at a concentration of 2.5×10^6 cells/mL assay buffer. Cells ([…]) were incubated with [^125I]Bolton-Hunter substance P (0.05-0.1 nM) in the presence and absence of varying concentrations of test compounds for 50 min at 21° C. Non-specific binding (10% of the total binding observed under these conditions) was defined by […] [Sar^9, Met(02)^11] substance P. Reactions were terminated by rapid filtration under vacuum onto GF\C filters presoaked in 0.2% PEI for 1-2 h, using a Brandel cell harvester. Filters were washed with 6×1 ml ice-cold Tris HCl (50 mM, pH 7.4) and radioactivity bound determined using a gamma couter. Results were analyzed using iterative curve fitting procedures in RS1 or Graphpad Inplot.
Take `O=C(NCc1cccs1)C(Cc1c[nH]c2ccccc12)NCc1cc2ccccc2o1` (stereo not shown) [Example 232, 2-[(Benzofuran-2-ylmethyl)-amino]-3-(1H-indol-3-yl)-N-thiophen-2-ylmethyl-propionamide]: the IC50 (commonly the midpoint of a concentration-inhibition curve) stood at 63 nM. As to `CC(CNC(=O)C(Cc1c[nH]c2ccccc12)NCc1cc2ccccc2o1)c1ccccc1` (stereo not shown) [Example 233, 2-[(Benzofuran-2-ylmethyl)-amino]-3-(1H-indol-3-yl)-N-(2-phenyl-propyl)-propionamide], the half-inhibitory concentration (IC50) came to 2000 nM.

As for `CC(NC(=O)C(Cc1c[nH]c2ccccc12)NCc1cc2ccccc2o1)c1ccccc1` (stereo not shown) [Example 234, 2-[(Benzofuran-2-ylmethyl)-amino]-3-(1H-indol-3-yl)-N-(1-phenyl-ethyl)-propionamide], the 50% inhibitory concentration (IC50) turned out to be 75 nM. `CC(NC(=O)C(Cc1c[nH]c2ccccc12)NCc1cc2ccccc2o1)c1ccc(F)cc1` (stereo not shown) [Example 235, 2-[(Benzofuran-2-ylmethyl)-amino]-N-[1-(4-fluoro-phenyl)-ethyl]-3-(1H-indol-3-yl)-propionamide]: the IC50 amounted to 3 nM. `CC(NC(=O)C(Cc1c[nH]c2ccccc12)NCc1cc2ccccc2o1)c1ccsc1` (stereo not shown) [Example 236, 2-[(Benzofuran-2-ylmethyl)-amino]-3-(1H-indol-3-yl)-N-(1-thiophen-3-yl-ethyl)-propionamide]: the IC50 stood at 7 nM. Under `O=C(CNC(=O)C(Cc1c[nH]c2ccccc12)NCc1cc2ccccc2o1)c1ccccc1` (stereo not shown) [Example 237, 2-[(Benzofuran-2-ylmethyl)-amino]-3-(1H-indol-3-yl)-N-(2-oxo-2-phenyl-ethyl)-propionamide] stands 5340 nM; under `O=C(NCc1ccccc1F)C(Cc1c[nH]c2ccccc12)NCc1cc2ccccc2o1` (stereo not shown) [Example 238, 2-[(Benzofuran-2-ylmethyl)-amino]-N-(2-fluoro-benzyl)-3-(1H-indol-3-yl)-propionamide], 89 nM; under `O=C(NC1Cc2ccccc2C1)C(Cc1c[nH]c2ccccc12)NCc1cc2ccccc2o1` (stereo not shown) [Example 239, 2-[(Benzofuran-2-ylmethyl)-amino]-N-indan-2-yl-3-(1H-indol-3-yl)-propionamide], 243 nM.

Regarding `O=C(NCc1ccncc1)C(Cc1c[nH]c2ccccc12)NCc1cc2ccccc2o1` (stereo not shown) [Example 240], the half-inhibitory concentration (IC50) worked out at 196 nM. Under `CC(NC(=O)C(Cc1c[nH]c2ccccc12)NCc1cc2ccccc2o1)C1CCCCC1` (stereo not shown) [Example 241, 2-[(Benzofuran-2-ylmethyl)-amino]-N-(1-cyclohexyl-ethyl)-3-(1H-indol-3-yl)-propionamide] stands 2 nM; under `Cc1ccccc1CNC(=O)C(Cc1c[nH]c2ccccc12)NCc1cc2ccccc2o1` (stereo not shown) [Example 242, 2-[(Benzofuran-2-ylmethyl)-amino]-3-(1H-indol-3-yl)-N-(2-methyl-benzyl)-propionamide], 170 nM.

Take `CC(NC(=O)C(Cc1c[nH]c2ccccc12)NCc1cc2ccccc2o1)c1ccc(Cl)s1` (stereo not shown) [Example 243, 2-[(Benzofuran-2-ylmethyl)-amino]-N-[1-(5-chloro-thiophen-2-yl)-ethyl]-3-(1H-indol-3-yl)-propionamide]: the half-inhibitory concentration (IC50) was determined as 15 nM.

Consider `O=C(NCc1ccc(F)cc1)C(Cc1c[nH]c2ccccc12)NCc1cc2ccccc2o1` (stereo not shown) [Example 244, 2-[(Benzofuran-2-ylmethyl)-amino]-N-(4-fluoro-benzyl)-3-(1H-indol-3-yl)-propionamide], for which the IC50 is 12 nM. Take `O=C(NCCc1ccccc1)C(Cc1c[nH]c2ccccc12)NCc1cc2ccccc2o1` (stereo not shown) [Example 246, 2-[(Benzofuran-2-ylmethyl)-amino]-3-(1H-indol-3-yl)-N-phenethyl-propionamide]: the IC50 is 77 nM. Take `O=C(NCCc1cccs1)C(Cc1c[nH]c2ccccc12)NCc1cc2ccccc2o1` (stereo not shown) [Example 247, 2-[(Benzofuran-2-ylmethyl)-amino]-3-(1H-indol-3-yl)-N-(2-thiophen-2-yl-ethyl)-propionamide]: the IC50 was found to be 56 nM. For the compound `O=C(NCc1cccc(F)c1)C(Cc1c[nH]c2ccccc12)NCc1cc2ccccc2o1` (stereo not shown) [Example 248, 2-[(Benzofuran-2-ylmethyl)-amino]-N-(3-fluoro-benzyl)-3-(1H-indol-3-yl)-propionamide], the concentration for half-maximal inhibition (IC50) is 6 nM. As for `O=C(NCc1nc2ccccc2[nH]1)C(Cc1c[nH]c2ccccc12)NCc1cc2ccccc2o1` (stereo not shown) [Example 250, 2-[(Benzofuran-2-ylmethyl)-amino]-N-(1H-benzoimidazol-2-ylmethyl)-3-(1H-indol-3-yl)-propionamide], the IC50 amounted to 3410 nM. For the compound `O=C(NCCc1ccco1)C(Cc1c[nH]c2ccccc12)NCc1cc2ccccc2o1` (stereo not shown) [Example 251, 2-[(Benzofuran-2-ylmethyl)-amino]-N-(2-furan-2-yl-ethyl)-3-(1H-indol-3-yl)-propionamide], the half-maximal inhibitory concentration (IC50) turned out to be 129 nM. For `Cc1cccc(CNC(=O)C(Cc2c[nH]c3ccccc23)NCc2cc3ccccc3o2)c1` (stereo not shown) [Example 252, 2-[(Benzofuran-2-ylmethyl)-amino]-3-(1H-indol-3-yl)-N-(3-methyl-benzyl)-propionamide], the IC50 was 33 nM.

As for `O=C(NC1CCc2ccccc2C1)C(Cc1c[nH]c2ccccc12)NCc1cc2ccccc2o1` (stereo not shown) [Example 253, 2-[(Benzofuran-2-ylmethyl)-amino]-3-(1H-indol-3-yl)-N-(1,2,3,4-tetrahydro-naphthalen-2-yl)-propionamide], the IC50 is 3330 nM. For the compound `O=C(NCc1ccccc1)C(Cc1c[nH]c2ccccc12)NCc1cc2ccccc2o1` (stereo not shown) [Example 254, 2-[(Benzofuran-2-ylmethyl)-amino]-N-benzyl-3-(1H-indol-3-yl)-propionamide], the IC50 came to 22 nM.

On to `COc1ccc(C(C)NC(=O)C(Cc2c[nH]c3ccccc23)NCc2cc3ccccc3o2)cc1` (stereo not shown) [Example 255, 2-[(Benzofuran-2-ylmethyl)-amino]-3-(1H-indol-3-yl)-N-[1-(4-methoxy-phenyl)-ethyl]-propionamide], for which the IC50 was determined as 9 nM. As for `O=C(NCc1ccccc1O)C(Cc1c[nH]c2ccccc12)NCc1cc2ccccc2o1` (stereo not shown) [Example 256, 2-[(Benzofuran-2-ylmethyl)-amino]-N-(2-hydroxy-benzyl)-3-(1H-indol-3-yl)-propionamide], the IC50 was > 10000 nM.

As to `CC(C)(CNC(=O)C(Cc1c[nH]c2ccccc12)NCc1cc2ccccc2o1)c1ccccc1` (stereo not shown) [Example 257, 2-[(Benzofuran-2-ylmethyl)-amino]-3-(1H-indol-3-yl)-N-(2-methyl-2-phenyl-propyl)-propionamide], the concentration for half-maximal inhibition (IC50) was > 10000 nM. `O=C(NCc1ccc(Cl)cc1)C(Cc1c[nH]c2ccccc12)NCc1cc2ccccc2o1` (stereo not shown) [Example 258, 2-[(Benzofuran-2-ylmethyl)-amino]-N-(4-chloro-benzyl)-3-(1H-indol-3-yl)-propionamide]: the half-inhibitory concentration (IC50) came to 46 nM. In the case of `CCC(NC(=O)C(Cc1c[nH]c2ccccc12)NCc1cc2ccccc2o1)c1ccccc1` (stereo not shown) [Example 259, 2-[(Benzofuran-2-ylmethyl)-amino]-3-(1H-indol-3-yl)-N-(1-phenyl-propyl)-propionamide], the IC50 is 21 nM. Turning to `O=C(NCc1cccc([N+](=O)[O-])c1)C(Cc1c[nH]c2ccccc12)NCc1cc2ccccc2o1` (stereo not shown) [Example 260, 2-[(Benzofuran-2-ylmethyl)-amino]-3-(1H-indol-3-yl)-N-(3-nitro-benzyl)-propionamide], the half-inhibitory concentration (IC50) came out at 14 nM.

`O=C(NCc1ccco1)C(Cc1c[nH]c2ccccc12)NCc1cc2ccccc2o1` (stereo not shown) [Example 261, 2-[(Benzofuran-2-ylmethyl)-amino]-N-furan-2-ylmethyl-3-(1H-indol-3-yl)-propionamide]: the 50% inhibitory concentration (IC50) amounted to 406 nM. Consider `O=C(NC1CCc2ccccc21)C(Cc1c[nH]c2ccccc12)NCc1cc2ccccc2o1` (stereo not shown) [Example 262, 2-[(Benzofuran-2-ylmethyl)-amino]-N-indan-1-yl-3-(1H-indol-3-yl)-propionamide], for which the IC50 was 86 nM. Take `O=C(NCc1cccc(Cl)c1)C(Cc1c[nH]c2ccccc12)NCc1cc2ccccc2o1` (stereo not shown) [Example 263, 2-[(Benzofuran-2-ylmethyl)-amino]-N-(3-chloro-benzyl)-3-(1H-indol-3-yl)-propionamide]: the IC50 was determined as 9 nM. Take `CC(NC(=O)C(Cc1c[nH]c2ccccc12)NCc1cc2ccccc2o1)c1ccc(Cl)cc1` (stereo not shown) [Example 264, 2-[(Benzofuran-2-ylmethyl)-amino]-N-[1(4-chloro-phenyl)-ethyl]-3-(1H-indol-3-yl)-propionamide]: the IC50 came to 7 nM. For the compound `CC(C)(NC(=O)C(Cc1c[nH]c2ccccc12)NCc1cc2ccccc2o1)c1ccccc1` (stereo not shown) [Example 265, 2-[(Benzofuran-2-ylmethyl)-amino]-3-(1H-indol-3-yl)-N-(1-methyl-1-phenyl-ethyl)-propionamide], the 50% inhibitory concentration (IC50) amounted to 328 nM. Regarding `O=C(NCC1CC2CCC1C2)C(Cc1c[nH]c2ccccc12)NCc1cc2ccccc2o1` (stereo not shown) [Example 266, 2-[(Benzofuran-2-ylmethyl)-amino]-N-bicyclo[2.2.1]-hept-2-ylmethyl-3-(1H-indol-3-yl)-propionamide], the IC50 came out at 633 nM. For `O=C(NCc1ccc2c(c1)OCO2)C(Cc1c[nH]c2ccccc12)NCc1cc2ccccc2o1` (stereo not shown) [Example 267, N-Benzo[1,3]-dioxol-5-ylmethyl-2-[(benzofuran-2-ylmethyl)-amino]-3-(1H-indol-3-yl)-propionamide], the IC50 came out at 55 nM.

Source of the values: patent US6472418B1, “Non-peptide NK1 receptors antagonists” (Warner-Lambert Company, priority 1998, dated 2002).
